Laboratory results as given in US20160058829A1, “ANTI-FIBROTIC PEPTIDES AND THEIR USE IN METHODS FOR TREATING DISEASES AND DISORDERS CHARACTERIZED BY FIBROSIS” (Thrasos Innovation, Inc., priority 2011, published 2016).
Positions of bridges follow the written chain, without caps; N, C: chain ends. Non-standard residues stand in square brackets, D forms with d. Dap = NC[C@H](N)C(=O)O

System: human proximal tubule epithelial cells (HK2)
Assay: D-glucose-induced EMT assay, E-cadherin immunofluorescence with colorimetric image analysis
Format: cell-based
Conditions: for Percent inhibition of D-glucose-induced EMT: 0% = D-glucose untreated, 100% = media without D-glucose
Protocol: Chronic hyperglycemia is a known cause of renal fibrosis in type 2 diabetes. The assay in this example induces the transdifferentiation from the epithelial to the mesenchymal phenotype (EMT) in human proximal tubule epithelial cells (HK2) by exposing them to high levels of D-glucose (100 mM and 200 mM). […] Exposure to 100 mM D-glucose results in the loss of E-cadherine expression as evidenced by the loss of the fluorescene signal. Using this assay test compounds are evaluated based on their ability to inhibit the EMT processes in the presence of high levels of D-glucose. FIGS. 4-16 are fluorescence micrographs of HK2 cells exposed to 100 mM D-glucose and 100 uM of SEQ IS NOs 1 through 11, respectively. Note that all but SEQ ID NOs 10 and 11 were able to preserve the epithelial phenotype (i.e., inhibit the EMT).
Results are provided in the context of FIG. 1 and Table 3, below. In Table 3 below, compound response is scored using image analysis as described herein in the method of Methods and Materials, part C. A 0% response corresponds to the signal for 100 mM (or 200 mM) D-glucose (untreated) while the 100% response corresponds to the signal for media in the absence of D-glucose.
It has been shown that transdifferentiation of proximal tubular epithelial cells is a critical step in the development of renal fibrosis, and that this is associated with a loss of the epithelial phenotypic marker, E-cadherin expression. This provides the basis for the development of a cell-based screening assay in which high concentrations of D-Glucose (50-100 mM) are used to induce a loss of E-cadherin expression in human renal proximal tubular epithelial (HK-2) cells, and compounds are tested for their ability to reverse the loss E-cadherin expression.
Materials: • Human proximal tubular epithelial cells, HK-2 (ATCC #CRL-2190) • Serum-free keratinocyte medium (GIBCO #17005-042, K-SFM) • Epidermal growth factor (EGF: 5 ng/mL) • Bovine pituitary extract (BPE: 40 ug/mL) • Primary antibody, Mouse IgG anti-E-cadherin (R&D Systems # MAB1838) • BSA [Sigma #A7030] • secondary antibody, FITC-conjugated Goat anti-mouse IgG (Fab2) fragment (Sigma-Aldrich # F-2653) • Paraformaldehyde (10%)) • Triton X-100 (Sigma # T-9284) • PBS (Fisher Scientific #BP399-1) • D-PBS (Invitrogen #14190-144) • Polypropylene tips (Axygen, Inc. 0.5-10 uL, cat # T-300-L-R; 1-200 uL, Cat # T-200-L-R; 1-1000 uL, Cat # T-1000-C-L-R) • 50 mL polypropylene culture tubes (Fisher Scientific, cat #06-443-18) • 24-well Coster cell culture plates (Fisher Scientific #07-200-84)
Reagents & Test Samples: • Positive control: BMP-7, assayed at concentrations 0.1 and 1 ug/mL • Test compounds (peptides): each tested at final concentrations 100 uM and 200 uM.
Assay Procedure for Cell Culture Assay: • Run assay in 24-well culture plates. • Seed HK-2 cells at a density between 25,000 and 30,000 cells per well in lmL K-SFM medium with supplements added (growth medium) • Incubate HK-2 cells for 24 hours at 37° C., and let cells attach the plate • Next Day afternoon, change the medium with K-SFM medium with no added supplements (serum free medium) in all wells except the first two control wells. • Continue incubating HK-2 cells overnight at 37° C. • Next Day, aspirate the medium from all wells. Incubate the cells in growth medium (first two control wells) or expose them to test compounds for 2 hours at 37° C. Final concentrations of each Test compound are 100 and 200 uM. BMP-7 serves as a positive control in the assay. • After incubation, add D-glucose to all wells except first two control wells. Final concentrations of D-Glucose are 50 and 100 mM. • Incubate HK-2 cells for 60 hours at 37° C. • Aspirate the medium from all wells. To the wells, add pre-warmed growth medium or serum free medium containing D-glucose alone or D-glucose and test compound or D-glucose and BMP-7. Final concentrations of D-Glucose and Test compound are the same as above. • Continue incubating HK-2 cells for 24 hours at 37° C. […]

Substance	Percent inhibition of D-glucose-induced EMT (200 uM peptide) [%]	Percent inhibition of D-glucose-induced EMT (100 uM peptide) [%]	preservation of the epithelial phenotype (inhibition of EMT), anti-fibrotic effect (HK2 cells, high D-glucose)
11 (H-CYYDDSSSVLCKKYRS-OH; disulfide 1-11; SMILES CC(C)C[C@@H]1NC(=O)[C@H](C(C)C)NC(=O)[C@H](CO)NC(=O)[C@H](CO)NC(=O)[C@H](CO)NC(=O)[C@H](CC(=O)O)NC(=O)[C@H](CC(=O)O)NC(=O)[C@H](Cc2ccc(O)cc2)NC(=O)[C@H](Cc2ccc(O)cc2)NC(=O)[C@@H](N)CSSC[C@@H](C(=O)N[C@@H](CCCCN)C(=O)N[C@@H](CCCCN)C(=O)N[C@@H](Cc2ccc(O)cc2)C(=O)N[C@@H](CCCNC(=N)N)C(=O)N[C@@H](CO)C(=O)O)NC1=O) [compound 11]	−13		
3 (H-[Dap]YFDDSSNVLDKKYRS-OH; SMILES CC(C)C[C@H](NC(=O)[C@@H](NC(=O)[C@H](CC(N)=O)NC(=O)[C@H](CO)NC(=O)[C@H](CO)NC(=O)[C@H](CC(=O)O)NC(=O)[C@H](CC(=O)O)NC(=O)[C@H](Cc1ccccc1)NC(=O)[C@H](Cc1ccc(O)cc1)NC(=O)[C@@H](N)CN)C(C)C)C(=O)N[C@@H](CC(=O)O)C(=O)N[C@@H](CCCCN)C(=O)N[C@@H](CCCCN)C(=O)N[C@@H](Cc1ccc(O)cc1)C(=O)N[C@@H](CCCNC(=N)N)C(=O)N[C@@H](CO)C(=O)O) [compound 3]	128	67	
5 (H-CYYDNSSSVLCKRYRS-OH; disulfide 1-11; SMILES CC(C)C[C@@H]1NC(=O)[C@H](C(C)C)NC(=O)[C@H](CO)NC(=O)[C@H](CO)NC(=O)[C@H](CO)NC(=O)[C@H](CC(N)=O)NC(=O)[C@H](CC(=O)O)NC(=O)[C@H](Cc2ccc(O)cc2)NC(=O)[C@H](Cc2ccc(O)cc2)NC(=O)[C@@H](N)CSSC[C@@H](C(=O)N[C@@H](CCCCN)C(=O)N[C@@H](CCCNC(=N)N)C(=O)N[C@@H](Cc2ccc(O)cc2)C(=O)N[C@@H](CCCNC(=N)N)C(=O)N[C@@H](CO)C(=O)O)NC1=O) [compound 5]	84	33	
2 (H-DYFDDSSNVL[Dap]KKYRS-OH; SMILES CC(C)C[C@H](NC(=O)[C@@H](NC(=O)[C@H](CC(N)=O)NC(=O)[C@H](CO)NC(=O)[C@H](CO)NC(=O)[C@H](CC(=O)O)NC(=O)[C@H](CC(=O)O)NC(=O)[C@H](Cc1ccccc1)NC(=O)[C@H](Cc1ccc(O)cc1)NC(=O)[C@@H](N)CC(=O)O)C(C)C)C(=O)N[C@@H](CN)C(=O)N[C@@H](CCCCN)C(=O)N[C@@H](CCCCN)C(=O)N[C@@H](Cc1ccc(O)cc1)C(=O)N[C@@H](CCCNC(=N)N)C(=O)N[C@@H](CO)C(=O)O) [compound 2]	96	167	
1 (H-CYFDDSSNVLCKKYRS-OH; disulfide 1-11; SMILES CC(C)C[C@@H]1NC(=O)[C@H](C(C)C)NC(=O)[C@H](CC(N)=O)NC(=O)[C@H](CO)NC(=O)[C@H](CO)NC(=O)[C@H](CC(=O)O)NC(=O)[C@H](CC(=O)O)NC(=O)[C@H](Cc2ccccc2)NC(=O)[C@H](Cc2ccc(O)cc2)NC(=O)[C@@H](N)CSSC[C@@H](C(=O)N[C@@H](CCCCN)C(=O)N[C@@H](CCCCN)C(=O)N[C@@H](Cc2ccc(O)cc2)C(=O)N[C@@H](CCCNC(=N)N)C(=O)N[C@@H](CO)C(=O)O)NC1=O) [compound 1]	98	125	
(H)-CYFNDSSQVLCKRYRS-(OH) (H-CYFNDSSQVLCKRYRS-OH; disulfide 1-11; SMILES CC(C)C[C@@H]1NC(=O)[C@H](C(C)C)NC(=O)[C@H](CCC(N)=O)NC(=O)[C@H](CO)NC(=O)[C@H](CO)NC(=O)[C@H](CC(=O)O)NC(=O)[C@H](CC(N)=O)NC(=O)[C@H](Cc2ccccc2)NC(=O)[C@H](Cc2ccc(O)cc2)NC(=O)[C@@H](N)CSSC[C@@H](C(=O)N[C@@H](CCCCN)C(=O)N[C@@H](CCCNC(=N)N)C(=O)N[C@@H](Cc2ccc(O)cc2)C(=O)N[C@@H](CCCNC(=N)N)C(=O)N[C@@H](CO)C(=O)O)NC1=O) [SEQ ID NO: 10]			very weak anti-fibrotic effect
